The test system of assay [1] is B. humptydooensis ATCC BAA-2767. As to the kind of experiment: microbe, parasite or virus in culture. It counts as cell-based. To be noted: Burkholderia humptydooensis, ATCCBAA2767, read-out: Minimum inhibitory concentration (MIC), B. humptydooensis ATCC BAA-2767.
Another assay has as its target A. baumannii PBP2 (Acinetobacter baumannii, UniProt D0C8Z9). Kind of assay: Bocillin-FL competition binding via gel filtration, A. baumannii PBP2. Here is the method:
(§1) Affinity to A. baumannii PBP1a and PBP2 was assessed a competitive equilibrium binding assay using Bocillin-FL as the reporter molecule. Enzyme was pre-incubated with increasing concentrations of inhibitors, prior to addition of Bocillin and further incubation for 15 minutes. PBP bound with Bocillin-FL was separated by gel filtration using 96-well Zeba Spin size exclusion plates, and the fluorescence measured. The inhibitor affinity (reported as the EC50) was determined by plotting the fraction of PBP bound with Bocillin-FL at each inhibitor concentration against the inhibitor concentration, and fitting the data to the following equation:
(§2) [formula] • where y is the fraction bound at a given inhibitor concentration, ymin is the fraction bound when the enzyme is completely inactivated, ymax is the maximum (uninhibited) fraction bound, n is the Hill coefficient, and x is the inhibitor concentration.

Assay [2] deals with B. thailandensis ATCC 700388. As to the kind of experiment: microbe, parasite or virus in culture. It counts as cell-based. As to conditions: Burkholderia thailandensis, ATCC700388, read-out: Minimum inhibitory concentration (MIC), B. thailandensis ATCC 700388.
Another assay deals with T1, A. baumannii PBP1a (Acinetobacter baumannii, UniProt A0ABX6CK30).
T1 sequence (A0ABX6CK30 1-851): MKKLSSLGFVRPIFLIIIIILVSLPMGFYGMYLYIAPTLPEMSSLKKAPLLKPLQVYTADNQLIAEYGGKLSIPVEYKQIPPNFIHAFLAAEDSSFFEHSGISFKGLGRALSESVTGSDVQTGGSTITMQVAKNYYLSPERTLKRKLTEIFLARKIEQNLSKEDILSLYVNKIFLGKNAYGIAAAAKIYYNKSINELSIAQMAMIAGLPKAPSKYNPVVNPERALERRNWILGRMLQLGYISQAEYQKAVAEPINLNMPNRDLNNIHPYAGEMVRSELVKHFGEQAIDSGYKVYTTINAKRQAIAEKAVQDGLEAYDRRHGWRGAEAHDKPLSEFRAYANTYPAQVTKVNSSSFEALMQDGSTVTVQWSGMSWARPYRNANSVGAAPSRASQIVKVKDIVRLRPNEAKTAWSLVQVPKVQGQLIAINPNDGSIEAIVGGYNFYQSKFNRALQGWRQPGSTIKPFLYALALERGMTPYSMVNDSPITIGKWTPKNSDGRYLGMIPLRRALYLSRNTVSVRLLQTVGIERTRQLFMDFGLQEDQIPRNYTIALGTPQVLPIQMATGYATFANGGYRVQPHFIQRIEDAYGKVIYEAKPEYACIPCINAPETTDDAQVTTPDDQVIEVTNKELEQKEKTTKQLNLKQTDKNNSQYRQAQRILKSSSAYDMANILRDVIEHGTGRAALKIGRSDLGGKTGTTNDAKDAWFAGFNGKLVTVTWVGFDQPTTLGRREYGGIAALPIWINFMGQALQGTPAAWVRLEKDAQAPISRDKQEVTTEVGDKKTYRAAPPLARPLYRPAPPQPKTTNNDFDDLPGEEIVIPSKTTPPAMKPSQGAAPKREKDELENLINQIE
Kind of assay: Bocillin-FL competition binding via gel filtration, A. baumannii PBP1a. As to conditions: competition binding assay using Bocillin-FL via gel filtration; read-out: A. baumannii PBP1a Potency. How it is done: as §1, §2
For orientation: SEC sorts molecules by how far they enter the pores of the column.

SMILES strings stand for the structures. pEC50: −log10 of the molar value.

Sequence of A. baumannii PBP2 (D0C8Z9 whole entry): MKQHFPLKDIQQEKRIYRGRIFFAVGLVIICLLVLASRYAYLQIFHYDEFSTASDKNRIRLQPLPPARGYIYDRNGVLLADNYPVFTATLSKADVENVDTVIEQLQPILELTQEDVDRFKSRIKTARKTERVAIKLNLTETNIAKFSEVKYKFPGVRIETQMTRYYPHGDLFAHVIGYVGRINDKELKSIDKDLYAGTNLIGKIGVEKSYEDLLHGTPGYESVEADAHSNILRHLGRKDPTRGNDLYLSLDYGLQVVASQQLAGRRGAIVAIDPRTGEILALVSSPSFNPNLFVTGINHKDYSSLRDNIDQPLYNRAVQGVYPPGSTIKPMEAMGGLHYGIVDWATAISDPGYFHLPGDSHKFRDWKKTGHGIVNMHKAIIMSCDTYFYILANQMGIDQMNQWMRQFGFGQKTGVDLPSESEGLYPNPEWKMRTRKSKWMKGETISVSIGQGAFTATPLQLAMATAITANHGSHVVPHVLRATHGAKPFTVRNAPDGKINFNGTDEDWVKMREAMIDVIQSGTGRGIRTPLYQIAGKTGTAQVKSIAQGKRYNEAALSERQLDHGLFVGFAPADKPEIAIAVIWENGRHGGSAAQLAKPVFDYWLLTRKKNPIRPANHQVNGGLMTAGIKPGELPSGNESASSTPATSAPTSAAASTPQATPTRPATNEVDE

`O=C(O)c1c(F)ccc2c1OB(O)[C@@H](NC(=O)C(NC(=O)N1CCN(C3CCN(Cc4ccc(F)c(O)c4)CC3)C1=O)c1cc(F)c(O)c(O)c1Cl)C2` (single isomer, unassigned) [Example 606]: the MIC in assay [1] and in assay [2] was below 1 µg/mL in each case. Besides, the values for the pEC50 on A. baumannii PBP2 and on A. baumannii PBP1a were 4.30 to 5.00 and above 5.00, respectively.
In the case of `O=C(O)c1c(F)ccc2c1OB(O)[C@@H](NC(=O)[C@H](NC(=O)N1CCN(C3CCN(Cc4cc(O)cc(F)c4)CC3)C1=O)c1cc(F)c(O)c(O)c1Cl)C2` (single isomer, unassigned) [Example 607], the MIC in assay [1] and in assay [2] was below 1 µg/mL throughout. Further, the pEC50 was 4.30 to 5.00 on A. baumannii PBP2 and above 5.00 on A. baumannii PBP1a.
For `O=C(O)c1c(F)ccc2c1OB(O)[C@@H](NC(=O)[C@H](NC(=O)N1CCN(C3CCN(Cc4cc(O)ccc4F)CC3)C1=O)c1cc(F)c(O)c(O)c1Cl)C2` (single isomer, unassigned) [Example 608], the MIC in assay [1] and in assay [2] was below 1 µg/mL each time. The pEC50 at A. baumannii PBP2 is 4.30 to 5.00; at A. baumannii PBP1a it was above 5.00.
`O=C(O)c1c(F)ccc2c1OB(O)[C@@H](NC(=O)C(NC(=O)N1CCN(C3CCN(Cc4ccc(O)cc4F)CC3)C1=O)c1cc(F)c(O)c(O)c1Cl)C2` (single isomer, unassigned) [Example 611]: the MIC in assay [1] and in assay [2] was below 1 µg/mL in each case. For the same molecule, the pEC50 was 4.30 to 5.00 at A. baumannii PBP2 and above 5.00 at A. baumannii PBP1a.
In the case of `NCc1cccc(CN2CCC(N3CCN(C(=O)N[C@@H](C(=O)N[C@H]4Cc5ccc(F)c(C(=O)O)c5OB4O)c4cc(F)c(O)c(O)c4Cl)C3=O)CC2)c1` (single isomer, unassigned) [Example 613], the MIC in assay [1] and in assay [2] was below 1 µg/mL throughout. The pEC50 on A. baumannii PBP2 and on A. baumannii PBP1a was 4.30 to 5.00 in each case.
As to `O=C(O)c1c(F)ccc2c1OB(O)[C@@H](NC(=O)C(NC(=O)N1CCN(C3CCN(S(=O)(=O)c4cc(O)cc(O)c4)CC3)C1=O)c1cc(F)c(O)c(O)c1Cl)C2` (stereo partly drawn) [Example 600, (3R)-3-(2-(2-chloro-5-fluoro-3,4-dihydroxyphenyl)-2-(3-(1-((3,5-dihydroxyphenyl)sulfonyl)piperidin-4-yl)-2-oxoimidazolidine-1-carboxamido)acetamido)-7-fluoro-2-hydroxy-3,4-dihydro-2H-benzo[e][1,2]oxaborinine-8-carboxylic acid], the MIC in assay [1] and in assay [2] was above 128 µg/mL throughout. The pEC50 on A. baumannii PBP2 and at A. baumannii PBP1a was above 5.00 each time.
